Reference: patent publication US9815792B2, “Method for producing carboxamides” (BAYER CROPSCIENCE AKTIENGESELLSCHAFT, priority 2014, dated 2017)
Like-named read-outs stand apart in the source and are kept apart here.

Tests used:
[1] = Determination of log P values by HPLC on reversed-phase column (C18); format: physicochemical
Method: Unless indicated otherwise, the following method was used to determine the log P values and masses: The determination of the given log P values was carried out in accordance with EEC Directive 79/831 Annex V.A8 by HPLC (High Performance Liquid Chromatography) on a reversed-phase column (C18). […] Mass detection is effected by means of an Agilend MSD system.

Cooperia curticei = Cooperia curticei test (COOPCU); format: in vivo; details: 20 ppm, nematode larvae, after 5 days
Method: Cooperia curticei test (COOPCU)
(§1) Solvent: dimethyl sulphoxide
(§2) To produce a suitable preparation of active compound, 10 mg of active compound are mixed with 0.5 ml of dimethyl sulphoxide and the concentrate is diluted with “Ringer's solution” to the desired concentration.
Vessels containing the active compound preparation of the desired concentration are populated with about 40 nematode larvae (Cooperia curticei).
(§3) After 5 days, the kill in % is determined. 100% means that all the larvae has been killed; 0% means that none of the larvae has been killed.

Haemonchus contortus = Haemonchus contortus test (HAEMCO); format: in vivo; details: 20 ppm, larvae of the red stomach worm, after 5 days
Method: Haemonchus contortus—test (HAEMCO)
as §1, §2
Vessels containing the active compound preparation of the desired concentration are populated with about 40 larvae of the red stomach worm (Haemonchus contortus).
as §3

Meloidogyne incognita = Meloidogyne incognita test (MELGIN); format: in vivo; details: 20 ppm, lettuce, after 14 days
Method: Meloidogyne incognita test (MELGIN)
Solvent: 125.0 parts by weight of acetone
To produce a suitable active compound formulation, 1 part by weight of active compound is mixed with the stated amount of solvent and the concentrate is diluted with water to the desired concentration.
Vessels are filled with sand, active compound solution, an egg/larvae suspension of the southern root-knot nematode (Meloidogyne incognita) and lettuce seeds. The lettuce seeds germinate and the plants develop. The galls develop on the roots.
After 14 days, the nematicidal efficacy in % is determined by the formation of galls. 100% means that no galls were found; 0% means that the number of galls on the treated plants corresponds to the untreated control.

Phaedon cochleariae = Phaedon cochleariae spray test (PHAECO); format: in vivo; details: 500 g/ha, Chinese cabbage leaf discs, after 7 days
Method: Phaedon cochleariae—spray test (PHAECO) • Solvent: 78.0 parts by weight of acetone 1.5 parts by weight of dimethylformamide • Emulsifier: alkylaryl polyglycol ether
(§4) To produce a suitable preparation of active compound, 1 part by weight of active compound is dissolved using the stated parts by weight of solvent and made up with water containing an emulsifier concentration of 1000 ppm until the desired concentration is attained. To produce further test concentrations, the preparation is diluted with emulsifier-containing water.
After 7 days, the efficacy in % is determined. 100% means that all the beetle larvae have been killed; 0% means that no beetle larvae have been killed.

Boophilus microplus = Boophilus microplus injection test (BOOPMI inj); format: in vivo; details: 20 μg/animal, injection into engorged adult female cattle ticks, assessed after 7 days
Method: Boophilus microplus—injection test (BOOPMI inj)
as §1
To produce a suitable preparation of active compound, 10 mg of active compound are mixed with 0.5 ml of solvent and the concentrate is diluted with solvent to the desired concentration.
1 μl of the active compound solution is injected into the abdomen of 5 engorged adult female cattle ticks (Boophilus microplus). The animals are transferred into dishes and kept in a climate-controlled room.
Efficacy is assessed after 7 days by laying of fertile eggs. Eggs which are not visibly fertile are stored in a climate-controlled cabinet until the larvae hatch after about 42 days. An efficacy of 100% means that none of the ticks has laid any fertile eggs; 0% means that all the eggs are fertile.

Tetranychus urticae = Tetranychus urticae spray test, OP-resistant (TETRUR); format: in vivo; details: 500 g/ha, bean leaf discs, after 6 days
Method: Tetranychus urticae—spray test, OP-resistant (TETRUR) • Solvent: 78.0 parts by weight of acetone 1.5 parts by weight of dimethylformamide • Emulsifier: alkylaryl polyglycol ether
as §4
Discs of bean leaves (Phaseolus vulgaris) infested by all stages of the greenhouse red spider mite (Tetranychus urticae) are sprayed with an active compound formulation of the desired concentration.
After 6 days, the efficacy in % is determined. 100% means that all the spider mites have been killed; 0% means that no spider mites have been killed.

[2] = formic acid method, read-out: log P(HCOOH)
[3] = neutral, read-out: log P(neutral)

Row | SMILES | chromatographic logP [1, 2] | chromatographic logP [1, 3] | efficacy (kill in %) (Haemonchus contortus) | other results
1 | Nc1cnn(-c2c(F)cccc2F)c1 [1-(2,6-Difluorophenyl)-1H-pyrazole-4-amine] | 0.09 | 0.89 | – | –
2 | Nc1cnn(-c2c(F)cccc2F)c1C(F)(F)F [1-(2,6-Difluorophenyl)-5-(trifluoromethyl)-1H-pyrazole-4-amine] | 2.14 | 2.13 | – | –
3 | O=C(O)c1cnn(-c2c(F)cccc2F)c1C(F)(F)F [1-(2,6-Difluorophenyl)-5-(trifluoromethyl)-1H-pyrazole-4-carboxylic acid] | 2.1 | 0.13 | – | –
4 | O=[N+]([O-])c1cnn(-c2c(F)cc(Cl)cc2F)c1 [1-(4-Chloro-2,6-difluorophenyl)-4-nitro-1H-pyrazole] | 2.74 | 2.72 | – | –
5 | Fc1cc(Cl)cc(F)c1-n1cccn1 [1-(4-chloro-2,6-difluorophenyl)pyrazole] | 2.36 | 2.34 | – | –
6 | Nc1cnn(-c2c(F)cc(F)cc2F)c1C(F)(F)F [5-(Trifluoromethyl)-1-(2,4,6-trifluorophenyl)-1H-pyrazole-4-amine] | 2.35 | 2.35 | – | –
7 | Nc1cnn(-c2c(F)cc(Cl)cc2F)c1Cl [5-Chloro-1-(4-chloro-2,6-difluorophenyl)-1H-pyrazole-4-amine] | 2.08 | 2.14 | – | –
8 | NNc1c(F)cc(Cl)cc1F [(4-chloro-2,6-difluorophenyl)hydrazine] | 0.15 | 1.44 | – | –
9 | CCOC(=O)c1cnn(-c2c(F)cccc2F)c1C(F)(F)F [Ethyl 1-(2,6-difluorophenyl)-5-(trifluoromethyl)-1H-pyrazole-4-carboxylate] | 3.56 | 3.52 | – | –
10 | O=C(Nc1cnn(-c2ccccc2F)c1)c1ccccc1I [I-1-7] | – | – | 90% | efficacy (kill in %) (Cooperia curticei): 90%; nematicidal efficacy (formation of galls) (Meloidogyne incognita): 90%; efficacy (beetle larvae killed) (Phaedon cochleariae): 83%
11 | O=C(Nc1cnn(-c2ccccc2F)c1)c1ccccc1C(F)(F)F [I-1-8] | – | – | 100% | efficacy (kill in %) (Cooperia curticei): 100%; nematicidal efficacy (formation of galls) (Meloidogyne incognita): 90%
12 | O=C(Nc1cnn(-c2c(F)cccc2F)c1)c1ccccc1C(F)(F)F [I-1-9, N-[1-(2,6-Difluorophenyl)-1H-pyrazol-4-yl]-2-(trifluoromethyl)benzamide] | 2.45 | 2.36 | 100% | efficacy (kill in %) (Cooperia curticei): 100%; nematicidal efficacy (formation of galls) (Meloidogyne incognita): 100%
13 | O=C(Nc1cnn(-c2ncccc2F)c1)c1ccccc1C(F)(F)F [I-1-10] | – | – | 90% | efficacy (laying of fertile eggs) (Boophilus microplus): 100%; nematicidal efficacy (formation of galls) (Meloidogyne incognita): 90%
14 | O=C(Nc1cnn(-c2ncccc2F)c1)c1ccccc1Br [I-1-16] | – | – | – | nematicidal efficacy (formation of galls) (Meloidogyne incognita): 90%
15 | O=C(Nc1cnn(-c2ncccc2F)c1)c1ccccc1Cl [I-1-17] | – | – | – | nematicidal efficacy (formation of galls) (Meloidogyne incognita): 100%
16 | O=C(Nc1cnn(-c2ncccc2F)c1)c1c(F)cccc1C(F)(F)F [I-1-18] | – | – | 80% | –
17 | O=C(Nc1cnn(-c2ncccc2Cl)c1)c1ccccc1I [I-1-22] | – | – | 100% | –
18 | O=C(Nc1cnn(-c2ncccc2Cl)c1)c1ccccc1Cl [I-1-23] | – | – | 90% | nematicidal efficacy (formation of galls) (Meloidogyne incognita): 90%; efficacy (beetle larvae killed) (Phaedon cochleariae): 100%
19 | O=C(Nc1cnn(-c2ncccc2Cl)c1)c1ccccc1C(F)(F)F [I-1-24] | – | – | 100% | efficacy (kill in %) (Cooperia curticei): 90%

Row | SMILES | chromatographic logP [1, 2] | chromatographic logP [1, 3] | efficacy (kill in %) (Haemonchus contortus) | other results
20 | O=C(Nc1cnn(-c2ncccc2Cl)c1)c1c(F)cccc1C(F)(F)F [I-1-25] | – | – | 100% | efficacy (kill in %) (Cooperia curticei): 90%
21 | O=C(Nc1cnn(-c2ncccc2Cl)c1)c1ccccc1Br [I-1-26] | – | – | 100% | –
22 | O=C(Nc1cnn(-c2ncccc2Br)c1)c1ccccc1C(F)(F)F [I-1-29] | – | – | – | efficacy (kill in %) (Cooperia curticei): 80%
23 | O=C(Nc1cnn(-c2ncccc2Br)c1)c1ccccc1Cl [I-1-30] | – | – | – | efficacy (beetle larvae killed) (Phaedon cochleariae): 83%
24 | O=C(Nc1cnn(-c2ncccc2Br)c1)c1c(F)cccc1F [I-1-31] | – | – | – | efficacy (beetle larvae killed) (Phaedon cochleariae): 100%
25 | O=C(Nc1cnn(-c2cc(F)cnc2F)c1)c1ccccc1I [I-1-33] | – | – | – | efficacy (kill in %) (Cooperia curticei): 80%
26 | O=C(Nc1cnn(-c2cnc(F)c(F)c2)c1)c1c(F)cccc1C(F)(F)F [I-1-36] | – | – | – | efficacy (kill in %) (Cooperia curticei): 100%
27 | O=C(Nc1cnn(-c2c(F)cccc2F)c1)c1ccccc1Br [I-1-40] | – | – | 90% | efficacy (kill in %) (Cooperia curticei): 80%
28 | O=C(Nc1cnn(-c2c(F)cccc2F)c1)c1ccccc1Cl [I-1-41] | – | – | – | efficacy (beetle larvae killed) (Phaedon cochleariae): 100%
29 | O=C(Nc1cnn(-c2c(F)cccc2F)c1)c1c(F)cccc1C(F)(F)F [I-1-42] | – | – | 100% | efficacy (kill in %) (Cooperia curticei): 80%
30 | O=C(Nc1cnn(-c2c(F)cc(Cl)cc2F)c1Cl)c1ccccc1I [I-1-44] | – | – | – | efficacy (spider mites killed) (Tetranychus urticae): 95%
31 | N#Cc1cccc(F)c1-n1cc(NC(=O)c2ccccc2C(F)(F)F)cn1 [I-1-52, N-[1-(2-Cyano-6-fluorophenyl)-1H-pyrazol-4-yl]-2-(trifluoromethyl)benzamide] | 2.37 | 2.33 | – | –
32 | O=C(Nc1cnn(-c2c(F)cccc2C(F)(F)F)c1)c1ccccc1C(F)(F)F [I-1-53] | – | – | – | efficacy (kill in %) (Cooperia curticei): 100%
33 | O=C(Nc1cnn(-c2c(F)cccc2F)c1)c1cccnc1C(F)(F)F [I-1-58] | – | – | 80% | –
34 | O=C(Nc1cnn(-c2c(F)cccc2Cl)c1)c1ccccc1C(F)(F)F [I-1-60] | – | – | – | nematicidal efficacy (formation of galls) (Meloidogyne incognita): 90%
35 | N#Cc1cccc(C#N)c1-n1cc(NC(=O)c2ccccc2C(F)(F)F)cn1 [I-1-68] | – | – | – | nematicidal efficacy (formation of galls) (Meloidogyne incognita): 100%
36 | O=C(Nc1cn[nH]c1)c1ccccc1C(F)(F)F [N-(1H-Pyrazol-4-yl)-2-(trifluoromethyl)benzamide] | 1.21 | 1.22 | – | –
37 | CC(C)(C)OC(=O)Nc1cnn(-c2c(F)cccc2F)c1C(F)(F)F [tert-Butyl [1-(2,6-difluorophenyl)-5-(trifluoromethyl)-1H-pyrazol-4-yl]carbamate] | 3.61 | 3.58 | – | –
